Data: paper PMC6991140 (Journal of the American Chemical Society, 2017)

Target: T1, asialoglycoprotein receptor (ASGPR) (Homo sapiens, UniProt P07306)
T1 sequence (P07306 1-291): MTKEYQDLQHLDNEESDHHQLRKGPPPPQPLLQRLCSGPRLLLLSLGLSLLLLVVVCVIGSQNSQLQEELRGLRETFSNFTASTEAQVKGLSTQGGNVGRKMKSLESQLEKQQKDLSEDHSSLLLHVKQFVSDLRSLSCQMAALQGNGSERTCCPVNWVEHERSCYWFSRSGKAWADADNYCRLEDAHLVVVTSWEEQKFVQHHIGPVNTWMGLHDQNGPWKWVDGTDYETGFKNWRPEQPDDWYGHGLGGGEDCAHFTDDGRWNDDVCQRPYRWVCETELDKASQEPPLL
Experiment: Surface plasmon resonance binding to immobilized ASGPR
Conditions: calculated from 1/Kads

calculated ligand efficiency (LE): 0.41
SMILES: CC(=O)N[C@H]1C(O)O[C@H](CO)[C@H](O)[C@@H]1O (mixture of isomers) [GalNAc, N-acetylgalactosamine]
